The nature of the series: Median particle size of salsalate before and after Microfluidics homogenizer passes. Type of series: physicochemical. The text has this:
Using a Microfluidics® Homogenizer 40, passes with the device take the median particle size of salsalate FIG. 1 from about 40 microns down to about 2.4 microns, as shown in FIG. 2. The resulting salsalate is formulated into unit dose oral dosages, as noted above.

SMILES strings stand for the structures.

As for `O=C(Oc1ccccc1C(=O)O)c1ccccc1O` [salsalate], the median particle size result reads like this: (after 40 passes with Microfluidics Homogenizer (micronized salsalate of the invention)) “about 2.4 microns”; (after 40 passes with Microfluidics Homogenizer (micronized salsalate of the invention), listed as Salsalate) 2.4 microns; (starting (regular) salsalate, before homogenization) “about 40 microns”.

Values taken from patent US9649289B1, “Method and composition for treating dysbiosis and related disease states” (BioAvivus, LLT, priority 2016, dated 2017).
